Data as given in US10166229B2, “Compounds and methods for the treatment of cancer” (The Board of Trustees of the University of Illinois, priority 2005, dated 2019).

Assays:
HL-60 cell line = assay: IC50 of PAC-1 derivatives in HL-60 cell line (Table 5); assay type: cell-based; details: for Fold better than PAC-1: HL-60 IC50 relative to PAC-1; for IC50: Homo sapiens, HL-60, Table 5
Excerpt: The results are indicated in Table 5 (where L- and R-designations refer to structures shown in the AX and BX series above, respectively).

HL-60 cells [1] = assay: Apoptosis induction assay in HL-60 cells, 72 hrs (Table 6); assay type: cell-based
Protocol: Compounds DX1-DX17 were tested using the HL-60 cell line for the ability to effect apoptosis, and IC50 values were determined. Activity levels of compounds from assays of 72 hrs duration with HL-60 cells are shown in Table 6 and along with structures in FIG. 12.

HL-60 cells [2] = assay: Cell death induction IC50 (MTS) in HL-60; assay type: cell-based, human
procaspase-3 [3] = molecular target: T1, procaspase-3 (Homo sapiens (Human), UniProt P42574); assay: In vitro activation of purified procaspase-3 (activation curves, Ac-DEVD-pNA); assay type: biochemical; details: for EC50: Table 3, read-out: EC50 (μM) for procaspase-3 activation; for Activity (direct activation of purified procaspase-3 in vitro): Table 2
Protocol: Activation curves. […] The plate was read every 2 minutes at 405 nm for 2 hours in a Spectra Max Plus 384 well plate reader. The slope of the linear portion for each well was determined and the fold increase in activation from non-treated control wells was calculated. […]

procaspase-3 [4] = molecular target: T1, procaspase-3; assay: Western blot of in vitro procaspase-3 activation by DX compounds; assay type: biochemical; details: 50 micromolar compound, about 35 nanomolar procaspase-3, 8 hr
Protocol: Certain compounds were also tested for the ability to effect in vitro activation of procaspase-3.

[5] = system: NCI-H226 lung cancer cell line; assay: Cell death IC50 (MTS) in NCI-H226; assay type: cell-based; details: etoposide, 24 hours; read-out: IC50 for inducing death, NCI-H226
PC-12 = assay: Cell death IC50 (MTS) in PC-12; assay type: cell-based; details: etoposide, 24 hours; read-out: IC50 for inducing death, PC-12
[6] = system: UACC-62 melanoma cell line; assay: Cell death IC50 (MTS) in UACC-62; assay type: cell-based; details: etoposide, 24 hours; read-out: IC50 for inducing death, UACC-62
[7] = system: CRL-1872 melanoma cell line; assay: Cell death IC50 (MTS) in CRL-1872; assay type: cell-based; details: etoposide, 24 hours; read-out: IC50 for inducing death, CRL-1872
U-937 = assay: Cell death IC50 (MTS) in U-937; assay type: cell-based; details: etoposide, 24 hours; read-out: IC50 for inducing death, U-937
SK-N-SH = assay: Cell death IC50 (MTS) in SK-N-SH; assay type: cell-based; details: etoposide, 24 hours; read-out: IC50 for inducing death, SK-N-SH
[8] = system: Hs 578t breast cancer cell line; assay: Cell death IC50 (MTS) in Hs 578t; assay type: cell-based; details: etoposide, 24 hours; read-out: IC50 for inducing death, Hs 578t
[9] = system: B16-F10 melanoma cell line; assay: Cell death IC50 (MTS) in B16-F10; assay type: cell-based; details: etoposide, 24 hours; read-out: IC50 for inducing death, B16-F10
[10] = Homo sapiens, HL-60, Table 3, read-out: IC50 (μM) for death induction in HL-60 cells

T1 sequence (P42574 whole entry): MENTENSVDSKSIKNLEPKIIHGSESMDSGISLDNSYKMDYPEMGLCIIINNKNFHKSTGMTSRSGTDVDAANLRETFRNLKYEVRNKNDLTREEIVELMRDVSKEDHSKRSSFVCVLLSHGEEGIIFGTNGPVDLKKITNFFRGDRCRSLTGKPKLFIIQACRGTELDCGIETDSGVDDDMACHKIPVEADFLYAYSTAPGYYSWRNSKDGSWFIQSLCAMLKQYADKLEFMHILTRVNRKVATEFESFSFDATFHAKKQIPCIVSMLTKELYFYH

## CC(C)(C)c1cc(/C=N/NC(=O)CN2CCN(Cc3ccc(OCc4ccccc4)c(OCc4ccccc4)c3)CC2)c(O)c(C(C)(C)C)c1 [Compound L09R06]
HL-60 cell line
  Fold better than PAC-1: 13.1-fold
  IC50: 4.17 µM

## O=C(CN1CCN(Cc2ccccc2)CC1)N/N=C/c1ccccc1O [de-allyl PAC-1]
HL-60 cells [1]; Homo sapiens
  IC50: 8.7 µM

## NNC(=O)CN1CCN(Cc2ccccc2)CC1 [drawing 29]
HL-60 cells [2]; [10]
  IC50: > 100 µM
procaspase-3 [3]
  EC50: > 50 µM

## O=C(CN1CCN(Cc2ccccc2)CC1)N/N=C/c1ccccc1 [drawing 26]
HL-60 cells [2]; [10]
  IC50: > 100 µM
procaspase-3 [3]
  EC50: > 50 µM

## O=C(CN1CCNCC1)N/N=C/c1ccccc1O
HL-60 cells [2]; [10]
  IC50: > 100 µM
procaspase-3 [3]
  EC50: > 50 µM

## CC(C)(C)c1cc(/C=N/NC(=O)CN2CCN(Cc3ccccc3)CC2)c(O)c(C(C)(C)C)c1 [Compound L01R06]
HL-60 cell line
  Fold better than PAC-1: 9.7-fold
  IC50: 5.63 µM

## NNC(=O)CN1CCN(Cc2ccccc2)CC1 [Compound 4]
procaspase-3 [3]
  Activity (direct activation of purified procaspase-3 in vitro): Inactive

## C=CCc1cccc(/C=N/NC(=O)CN2CCN(Cc3ccc(C(C)(C)C)cc3)CC2)c1O [Compound L02R03]
HL-60 cell line
  Fold better than PAC-1: 12.6-fold
  IC50: 4.34 µM

## CC(C)(C)c1cc(/C=N/NC(=O)CN2CCN(Cc3ccc(CCc4ccccc4)cc3)CC2)c(O)c(C(C)(C)C)c1 [Compound L08R06]
HL-60 cell line
  Fold better than PAC-1: 10.3-fold
  IC50: 5.31 µM

## c1ccc(CN2CCNCC2)cc1 [drawing 33]
HL-60 cells [2]; [10]
  IC50: > 100 µM
procaspase-3 [3]
  EC50: > 50 µM

## C=CCc1cccc(/C=N/NC(=O)CN2CCN(Cc3ccc(OCc4ccccc4)c(OCc4ccccc4)c3)CC2)c1O [Compound L09R03]
HL-60 cell line
  Fold better than PAC-1: 11.3-fold
  IC50: 4.82 µM

## CCOC(=O)CN1CCN(Cc2ccccc2)CC1
HL-60 cells [2]; [10]
  IC50: > 100 µM
procaspase-3 [3]
  EC50: > 50 µM

## c1ccc(CN2CCN(Cc3ccccc3)CC2)cc1
HL-60 cells [2]; [10]
  IC50: > 100 µM
procaspase-3 [3]
  EC50: > 50 µM

## C/C=N/NC(=O)CN1CCN(Cc2ccccc2)CC1
HL-60 cells [2]; [10]
  IC50: > 100 µM
procaspase-3 [3]
  EC50: > 50 µM

## CC(C)(C)c1ccc(CN2CCN(CC(=O)N/N=C/c3cc(C(C)(C)C)cc(C(C)(C)C)c3O)CC2)cc1 [Compound L02R06]
HL-60 cell line
  Fold better than PAC-1: 8.4-fold
  IC50: 6.53 µM

## c1ccc(CN2CCNCC2)cc1 [Compound 2]
procaspase-3 [3]
  Activity (direct activation of purified procaspase-3 in vitro): Inactive

## O=C(CN1CCN(Cc2ccc(OCc3ccccc3)c(OCc3ccccc3)c2)CC1)N/N=C/c1c(O)ccc2ccccc12 [Compound L09R08]
HL-60 cell line
  Fold better than PAC-1: 22.6-fold
  IC50: 2.42 µM

## C=CCc1cccc(/C=N/NC(=O)CN2CCC(Cc3ccccc3)CC2)c1O [DX11]
HL-60 cells [1]
  IC50: 3.2 µM
procaspase-3 [4]
  in vitro activation of procaspase-3 (Western blot) relative to control: substantial activity levels

## CCOC(=O)CN1CCNCC1
HL-60 cells [2]; [10]
  IC50: > 100 µM
procaspase-3 [3]
  EC50: > 50 µM

## O=C(CN1CCN(Cc2ccccc2)CC1)N/N=C/c1ccccc1 [Compound 7]
procaspase-3 [3]
  Activity (direct activation of purified procaspase-3 in vitro): Inactive

## CN1CCN(CC(=O)N/N=C/c2ccccc2O)CC1 [Compound 6]
procaspase-3 [3]
  Activity (direct activation of purified procaspase-3 in vitro): Inactive

## COc1cc([C@@H]2c3cc4c(cc3[C@@H](O[C@@H]3O[C@@H]5CO[C@@H](C)O[C@H]5[C@H](O)[C@H]3O)[C@H]3COC(=O)[C@H]23)OCO4)cc(OC)c1O [etoposide]
[5]
  IC50: > 50 µM
HL-60 cells [2]; etoposide, 24 hours, read-out: IC50 for inducing death, HL-60
  IC50: < 1 µM
PC-12
  IC50: < 1 µM
[6]
  IC50: > 50 µM
[7]
  IC50: > 50 µM
U-937
  IC50: < 1 µM
SK-N-SH
  IC50: < 1 µM
[8]
  IC50: > 50 µM
[9]
  IC50: > 50 µM
